One experiment relates to SAMs. Nature of the experiment: SAM viability (CyQuant Direct / resazurin). It counts as cell-based, mouse. Particulars: for SAM cell viability: 2.5 to 10 μM. The method, then:
FIG. 8. Immunomodulatory regulation of p16(Ink4a) and SAβG in macrophages. Peritoneal lavage cells elicited by alginate-encapsulated SCs from p16^Ink4a/Luc mice were treated ex vivo with immunomodulatory agents for up to 72 hours. (A) mRNA expression of p16(Ink4a) and β-galactosidase (Glb1) in macrophages (relative to B2m expression) with or without LPS stimulation for 72 hours analyzed via qRT-PCR, normalized to non-treated controls. (B) Microphotograph of SAβG-stained adherence-selected macrophages with or without stimulation with LPS (1 ng/mL) for 72 hours (10× objective). (C&D) Kinetics of p16(Ink4a) promoter-dependent luciferase activity per cell with or without LPS stimulation (C) or IL-4 stimulation (D), normalized to activity from non-treated cells at time zero. Results are shown as the mean±standard deviation for at least 3 experiments. Statistical significance with respect to non-treated control at time zero is indicated. (E) Luciferase activity and (3-galactosidase activity (via 4-MUG hydrolysis) from proteose peptone-elicited lavage cells following stimulation with IL-4 (20 ng/mL) for 72 hours, normalized to non-treated controls. (F) Viability following 72 hour dose-response to JAK1/2 inhibitor Ruxolitinib in the presence or absence of IL-4 (10 ng/mL) stimulation, measured by CyQuant Direct DNA-based viability assay. Viability normalized to respective controls lacking Ruxolitinib. (G&H) Dose-response of STAT6 inhibitor AS1517499 against luciferase activity (G) and viability via CyQuant Direct assay (H) following 72 hour treatment in the presence and absence of IL-4 (10 ng/mL). Results normalized to respective controls (with or without IL-4) lacking STAT6 inhibitor. Statistical significance is calculated with respect to the difference between IL-4 stimulated and non-stimulated cells at each concentration of STAT6 inhibitor. (I) Relative luciferase activity per cell following repolarization with M1- and M2-inducing agents. Macrophages were left non-treated (NT) or treated with either LPS (1 ng/ml) or IL-4 (20 ng/ml) for 72 hours (days 1-3), as indicated. For each treatment set, samples were collected at 72 hours (no further treatment; days 4-6=x). Alternatively, cells were washed and placed in fresh medium (−), medium containing LPS (1 ng/mL) and IFN-γ (10 ng/mL), or medium containing IL-4 (20 ng/mL) and IL-13 (10 ng/mL) and incubated for an additional 72 hours prior to sample collection (as indicated for days 4-6). Luciferase activity is expressed as the percent activity per cell relative to non-treated (NT) controls after the first 72 hours.
FIG. 10. Elevated p16(Ink4a) and β-galactosidase is regulated by immunomodulatory agents in macrophages, but not in mesenchymal SCs. Primary cultures of adipose-derived mesenchymal stromal cells (AdMSC) isolated from p16^Ink4a/Luc mice were irradiated (20 Gy) and cultured for 10 days for senescence induction. Mock irradiated cells were used as a proliferating cell control. Response of senescent and proliferating AdMSCs to immunomodulatory agents were compared to that of peritoneal lavage cells elicited by our alginate bead model. A-D) Dose-response curves of LPS (top panels: […]) and Poly(I:C) (bottom panels: C&D) on p16(Ink4a) promoter-dependent luciferase activity (left panels: A&C) and beta-galactosidase activity measured via 4-MUG hydrolysis (right panels: B&D) after 72 hr treatment. […]
FIG. 13. […] SAM viability was determined using the resazurin cell viability assay (Res). […]
For orientation: Alamar Blue is a resazurin reagent that responds to reducing activity.

Experiment [1] deals with adult rat dermal fibroblasts (RDF). Briefly: Resazurin viability assay, senescent vs proliferating rat dermal fibroblasts. It counts as cell-based. Particulars: for IC50: Rattus norvegicus, Fibroblast. The method, then: Cytotoxicity of A1.1 analogs against bleomycin-induced senescent human NDFs and rat dermal fibroblasts (RDFs). Activity of analogs was assessed from dose-response curves against irradiation- or bleomycin-induced senescent and proliferating cells to calculate IC50s (uM). The fold difference of proliferating versus senescent cell IC50s was used to assess the level of specific anti-senescent activity of the compounds.
For generation senescent human neonatal dermal fibroblasts (NDFs) and adult rat dermal fibroblasts (RDFs), cells are treated at ˜10 ug/ml bleomycin for 3 days (for bleomycin-induced senescence) or irradiated once at 20 Gy using a gamma irradiator (Cs source), followed by at least 7 day recovery in fresh medium for induction of senescence. Senescent and non-senescent (proliferating) cells for each cell line are plated into 384-w plate, followed by 72 hour exposure to a dose titration of compounds. Viability measurements are estimated using the resazurin viability assay. Using GraphPad Prism 5, the IC50 values are calculated from the non-linear regression of log-transformed compound concentrations versus dose-response normalized to background and non-treated controls.

The test system of a further experiment is B16 cells. Briefly: In vitro growth and viability of B16 cells (resazurin). The format is cell-based. Particulars: 72 hour exposure, up to 20 uM. From the text: FIG. 4. Efficacy of A1.1 analogs in the senescence-enhanced B16 metastasis model. (A) Quantification of metastatic nodules by H&E morphometric analysis, and the resulting reduction in tumor burden (%) compared to vehicle control. (B) Quantitation morphometric analysis of lungs excised from irradiated mice treated with analogs of A1.1 post-inoculation of B16 cell intravenously, along with quantitation of morphometric analysis, are provided. (C) In vitro testing of A1.1 and analogs against the growth and viability of B16 cells, as assessed by the resazurin viability assay after 72 hour exposure to compounds compared to non-treated controls.
The role of senescent cells in the promotion of metastatic potential of cancer cells has also been described [Patent WO 2013090645 A1; Campisi, J. (2015). Cancer and Aging: Rival Demons]. […] To test the efficacy of A1.1, irradiated (11 Gy followed by bone-marrow transplantation) and non-irradiated C57BL/6 mice received B16 melanoma cells via tail vein injection were subsequently (72 hours later) administered A1.1 (20 mg/kg) intraperitoneally once a day for 5 consecutive days.
Synthesized analogs were also tested in vivo, to assess whether optimized structures are capable of showing activity against senescence-mediated B16 lung metastasis in irradiated mice (FIG. 4B). […]

For experiment [2], the system named is SK-Mel-103 melanoma cells. Briefly: Anti-senescent cytotoxicity, senescent vs proliferating SK-Mel-103. Particulars: for IC50: Homo sapiens. The format is cell-based, Human.
[3] abbreviates: light or radiation study, senescent RDF, irradiation-induced, 72 hour exposure, resazurin, read-out: IC50 RDFsen.irr.
Where [4] appears, read: proliferating RDF, 72 hour exposure, resazurin, read-out: IC50 RDFprolif.
Setting [5] is: senescent RDF, bleomycin-induced, 72 hour exposure, resazurin, read-out: IC50 RDFsen.bleo.

Entries after “also recorded” stand apart in the source; their conditions may differ. Where two headings read alike, the source gives them in different places.

In the case of `COc1ccc(C2CC(=NO)c3c(SCc4ccccc4)sc(C(=O)NCc4cccc(F)c4)c3C2)cc1` (stereo not shown) [Example A1.6, 3-(Benzylthio)-N-(3-fluorobenzyl)-4-(hydroxyimino)-6-(4-methoxyphenyl)-4,5,6,7-tetrahydrobenzo[c]thiophene-1-carboxamide], the SAM cell viability result in the experiment with SAMs (resazurin / CyQuant, listed as TA-4812) was “no effect”; in the experiment with SAMs (resazurin / CyQuant, listed as TA-04812-1), “little to no effect”. Besides, the results for the half-inhibitory concentration (IC50) in experiment [1] (setting [3]), in experiment [1] (setting [4]) and in experiment [1] (setting [5]) were under 5 µM, over 20 µM and under 5 µM, respectively.
As for `CCOC(=O)c1sc(SCc2ccccc2)c2c1CC(c1ccc(OC)cc1)C/C2=N\O` (stereo not shown) [Example A1.1], the “Selectivity (Prolif/Sen)” value in experiment [1] (RDF, Bleomycin) was over 4.6; in experiment [1] (RDF, Irradiation) it was over 4.4; in experiment [2] (SK-Mel-103, Bleomycin), 3.3. For the same molecule, the IC50 in experiment [1] (light or radiation study, RDF, senescence induction: Irradiation, read-out: Activity against Senescent Cells (IC50; uM)) was 4.5 µM; in experiment [1] (setting [3]), under 5 µM; in experiment [1] (RDF proliferating, read-out: Activity against Proliferating Cells (IC50; uM)), over 20 µM; in experiment [1] (RDF, senescence induction: Bleomycin, read-out: Activity against Senescent Cells (IC50; uM)), 4.4 µM; in experiment [1] (setting [4]), over 20 µM; in experiment [1] (setting [5]) it was under 10 µM. Also, the IC50 in experiment [2] (SK-Mel-103, senescence induction: Bleomycin, read-out: Activity against Senescent Cells (IC50; uM)) stood at 5.6 µM; in experiment [2] (SK-Mel-103 proliferating, read-out: Activity against Proliferating Cells (IC50; uM)) it was 18.5 µM. In addition, in the experiment on B16 cells, the “B16 growth in vitro” value is “did not inhibit”.
As to `O=C(NCCCc1cn[nH]c1)c1ccc(-c2ccncc2)c(C#Cc2ccc(F)cc2)c1` [OT-82], in the experiment on SAMs (resazurin), the “toxicity to SAMs in combination with inducers of the M1-phenotype (LPS and interferon-gamma)” value is “toxic”. Also, in the experiment on SAMs (resazurin / CyQuant, 500 nM), the “toxicity to SAMs, OT-82 by itself” value is “low SAM toxicity; also recorded: almost non-toxic; also recorded: not toxic”.

Broadly, the IC50 is the midpoint of a concentration-inhibition curve.

Values taken from US20200123127A1, “REMOVAL OF SENESCENCE-ASSOCIATED MACROPHAGES” (EVERON BIOSCIENCES, INC., priority 2016, published 2020).
